In patent US20250066306A1, “COMPOUNDS FOR TREATING MICROBIAL INFECTIONS, METHODS OF MAKING AND USES THEREOF” (McMaster University, priority 2023, published 2025):
“Also recorded” adds a separate entry of the source. Like-named read-outs stand apart in the source and are kept apart here.

Experiments:
[1] = test system: HSV-1; assay: HSV-1 DualF infection of iPSC-derived NPC monolayers, flow cytometry of EGFP/RFP; type: cell-based; details: for antiviral efficacy of ACV compared with Ia: ACV 50 μM vs Ia 10 μM; for anti-HSV-1 activity: 01SD and 9001 NPCs; for anti-HSV-1 activity / reduction of the percentage of EGFP+-RFP+ cells: 10 μM; for reduction of the percentage of EGFP+-RFP+ cells: MOI 0.1, added 2 h after infection, day 3 p.i., flow cytometry
[2] = test system: 02SF NPCs; assay: RNA sequencing of uninfected NPCs treated with compounds; type: cell-based, human; details: 10 μM, 72 hours; of 12,433 expressed genes; FDR corrected p<=0.05
[3] = test system: HSV-1; type: cell-based; details: 9001 and 01SD brain organoids, fourteen-week old; compounds 10 μM, ACV 50 μM; day 3 p.i.
[4] = Solubility in DMSO
[5] = earlier work, refs 5a, 5b; cited from earlier work
[6] = test system: 01SD NPC cultures; assay: Cytotoxicity in uninfected 01SD NPC cultures, flow cytometry with fixable viability dye; type: cell-based, human; details: uninfected 01SD NPCs
[7] = test system: eIF2α phosphorylated on Serine 51; assay: Immunocytochemistry of eIF2α phosphorylated on serine 51 in NPC cultures; type: cell-based, human; details: 9001 NPCs; 10 μM; 24 hours; vs untreated or 7-treated
Protocol: (A) NPCs derived from 9001 iPSC lines were exposed to compounds 7, Ia (compound 8), and 2b (10 μM). After 24 hours, cells were fixed and stained with an antibody that detects eIF2α phosphorylated on Serine 51 (EIF2S1). Nuclei were counterstained with Hoechst 33342, and phosphorylation was assessed by fluorescence microscopy. (B) The corrected total cell fluorescence (CTCF) was obtained by measuring EIF2S1 fluorescence in cells where a fluorescent signal could be detected and normalizing for cellular area using equation CTCF=integrated density−(cellular area×mean fluorescence of background readings) (C-D). Up-regulation of the EIF2A kinase EIF2AK3 (C) and the activated transcription factor 4 (ATF4) (D) in 2b- and Ia (compound 8)-treated NPCs. (E) Proposed mechanism of action of 2b and Ia (compound 8).

[8] = test system: SARS-CoV2; assay: NIH-NIAID in vitro SARS-CoV2 viral replication assay in Calu3 cells; type: cell-based
[9] = test system: eukaryotic initiation factor 2 (EIF2) signaling pathway; assay: Ingenuity Pathway Analysis of differentially expressed genes; type: cell-based, human; details: IPA of DEG, treated vs vehicle; 10 μM
Protocol: Differentially Expressed Genes (DEG) measured by comparing 2b- and Ia (compound 8)-treated NPCs vs. vehicle-treated NPCs were subjected to Ingenuity Pathway Analysis (IPA). The top 10 pathways showing the greatest statistical significance (Fisher's Exact Test p-value) are shown. Activation (+ve z-score, orange bars) or inhibition (−ve z-score, blue bars) of each pathway is a measure of experimentally determined gene expression changes reported in the literature. Data were analyzed through the use of QIAGEN Ingenuity® Pathway Analysis. The intensity of color indicates the degree of activation/inhibition. Pathways without an activity pattern are in grey. Ratios (orange square above each pathway) represent the degree of overlap between DEG and all members of a given pathway. Y-axis on the right indicates ratio values.
Statistical significance was calculated using right-tailed Fisher Exact Probability Tests; biological pathways showing p-value<0.05 were considered statistically significant. […] IPA analyses also indicated net upregulation in the autophagy and sirtuin signaling pathways.

[10] = test system: HSV-1; details: ex vivo mouse model; earlier work; cited from earlier work
[11] = test system: iPSC-derived neural progenitor cells (NPCs); details: earlier work; cited from earlier work
[12] = test system: HSV-1; details: earlier work, refs 3d, 5a; cited from earlier work
[13] = test system: Calu3 (ATCC, HTB-55) cells; details: assessed at NIH
[14] = test system: fibroblasts and hepatocytes; details: earlier work; cited from earlier work
[15] = test system: HSV-1 strain 17syn+; assay: In vivo mouse eye HSV-1 infection (corneal scarification), plaque assay of eye swabs; parameters: species or system ND4 Swiss mice
Description: ND4 swiss mice were infected by corneal scarification with 1×10^5 pfu of HSV-1 strain 17syn+. Eyes were swabbed daily for 4 days and assayed for infectious virus by standard plaque assay.
The antiviral efficacy of compound Ia was further investigated in an in vivo mouse model. In order to assess the efficacy of Ia against an acute infection go HSV-1 in vivo, ND4 Swiss mice were infected in the eyes with HSV-1 following light corneal scarification. At the same time that the virus was applied, one group of mice (n=10) were treated with 2 uL of a 50 μM solution of R799 in DMSO and the other group (n=10) were treated with 2 uL DMSO (vehicle), applied to the eyes. The eyes were treated with either vehicle or Ia each day for 4 days. In order to assess the effect of Ia on the course of the infection, the eyes were swabbed daily with a Dacron swab, and the virus eluted in MEM medium. The swab eluate was assessed for the presence of infectious virus by standard plaque assay on rabbit skin cell monolayers.

[16] = test system: 9001 and 01SD brain organoids; assay: Organoid viability, calcein AM assay; type: cell-based, human; details: without HSV-1 infection; concentrations up to 50 μM
Protocol: (A) Sixteen-week old 9001 and 01SD brain organoids were infected individually with HSV-1 DualF construct (6000 pfu/organoid). After 2 hours the inocula were removed and Ia was added to varying concentrations (100 nM-[…]). The IC50 was estimated by determining the corrected total cell fluorescence (CTCF) obtained by measuring EGFP fluorescence in organoids using ImageJ and normalizing for background using equation CTCF=integrated density−(area of the organoid x mean fluorescence of background readings). (b) Cytotoxicity of compound Ia without HSV-1 infection was assessed using calcein-AM. The fluorescence of calcein-AM in each organoid was measured and CTCF was determined as described above. The data represent an average of six independent experiments. Error bars represent standard deviations. No significant difference were found between conditions. […]
Organoids viability was analyzing using calcein AM assay (BioLegend; catalogue #425201), according to manufacturer's instructions. […] After incubation, fluorescence signals were recorded using a LEICA DMIL LED Fluorescent microscope through a 0.16NA 4x air objective.
The corrected total cell fluorescence (CTCF) was obtained by measuring EGFP fluorescence in 799-treated and untreated organoids, and normalizing for whole organoid area using equation CTCF=integrated density−(whole organoid area x mean fluorescence of background readings).

For Nc1nc2c(ncn2COCCO)c(=O)[nH]1 [ACV, acyclovir, reference compound], the “antiviral efficacy of ACV compared with Ia” value ([1]; 01SD NPCs, p=0.0208) was “inferior to Ia” and the “antiviral efficacy of ACV compared with Ia” value ([1]; 9001 NPCs, p=0.3597) was “comparable”.
In the case of COc1cccc2c1C(=O)N[C@H]1[C@H](O)[C@H](O)[C@@H](O)C[C@H]21 [Compound 7, (2S,3R,4S,4aR,10bR)-2,3,4-Trihydroxy-7-methoxy-1,3,4,4a,5,10b-hexahydrophenanthridin-6(2H)-one], the anti-HSV-1 activity [1] is reported as “no anti-HSV-1 activity”, the “fraction of expressed genes significantly altered” value [2] is reported as 0.3% and the “number of genes whose expression was significantly altered” value [2] is reported as 33. The “anti-HSV-1 activity (expression of EGFP and RFP reporter genes)” value [3] was “no anti-HSV-1 activity”.
For COc1ccc2c(c1)[C@H]1C[C@H](O)[C@@H](O)[C@@H](O)[C@@H]1NC2=O [Compound 5, (2S,3R,4S,4aR,10bR)-2,3,4-Trihydroxy-9-methoxy-1,3,4,4a,5,10b-hexahydrophenanthridin-6(2H)-one], the anti-HSV-1 activity [1] was “no anti-HSV-1 activity” and the “solubility in DMSO” value [4] was “incompletely soluble in DMSO”.
For O=C1N[C@H]2[C@H](O)[C@H](O)[C@@H](O)C[C@@H]2c2cc(O)ccc21 [Compound 6, (2S,3R,4S,4aR,10bR)-2,3,4,9-Tetrahydroxy-1,3,4,4a,5,10b-hexahydrophenanthridin-6(2H)-one], the anti-HSV-1 activity [1] was “no anti-HSV-1 activity”, the “fraction of expressed genes significantly altered” value [2] was 2.1% and the “number of genes whose expression was significantly altered” value [2] was 256. For the same molecule, the “anti-HSV-1 activity (expression of EGFP and RFP reporter genes)” value [3] was “no anti-HSV-1 activity”.
In the case of O=C1NC2C(CC(O)C(O)C2O)c2cc3c(cc21)OCO3 (stereo not drawn) [C3-epimer of 2b], the antiviral activity [5] is given as “totally devoid of antiviral activity”.
With O=C1N[C@H]2[C@H](O)[C@H](O)[C@@H](O)C[C@@H]2c2cc3c(cc21)OCO3 (relative stereo) [Compound 2b, trans-dihydrolycoricidine, reference compound] the “concentration from which a reduction in cell viability was observed” value [6] was at least 25 µM, the “reduction of the percentage of EGFP+-RFP+ cells” value ([1]; 01SD NPCs) was 8016 fold and the “reduction of the percentage of EGFP+-RFP+ cells” value ([1]; 9001 NPCs) was 424 fold. For the same molecule, the “eIF2α~P immunoreactivity” value [7] was “increased eIF2α˜P immunoreactivity”, the IC50 ([8]; SARS-CoV2 in Calu3 cells, assessed at NIH, read-out: IC50) was 180 nM and the “EIF2 signaling pathway z score” value [9] was −2.857. For the same molecule, the “fraction of expressed genes significantly altered” value [2] was 62.5%, the “number of genes whose expression was significantly altered” value [2] was 7,766 and the “HSV-1 reactivation from latency” value [10] was “prevents HSV-1 reactivation from latency”. The “toxicity in comparison to acyclovir” value [11] was “lower toxicity”, the “inhibition of HSV-1 replication compared with acyclovir” value [12] was “more efficaciously than acyclovir” and the CC [13] was 3.48 µM. For the same molecule, the “anti-HSV-1 activity (expression of EGFP and RFP reporter genes)” value [3] was “no expression of EGFP and RFP reporter genes” and the “toxicity in comparison to acyclovir” value [14] was “Slightly higher toxicity”.
In the case of O=C1N[C@H]2[C@H](O)[C@H](O)[C@@H](O)C[C@@H]2c2cccc(O)c21 [Compound Ia, (2S,3R,4S,4aR,10bR)-2,3,4,7-Tetrahydroxy-1,3,4,4a,5,10b-hexahydrophenanthridin-6(2H)-one], the “cell viability of treated cultures” value ([6]; concentrations up to 50 μM, ACV and Ia compared) is reported as “comparable”, the “reduction of the percentage of EGFP+-RFP+ cells” value ([1]; 01SD NPCs) is reported as 6.76 fold and the “reduction of the percentage of EGFP+-RFP+ cells” value ([1]; 9001 NPCs) is reported as 4.65 fold. For the same molecule, the “eIF2α~P immunoreactivity” value [7] was “increased eIF2α˜P immunoreactivity”, the therapeutic selectivity ([8]; CC / IC50, SARS-CoV2 in Calu3 cells) was 20 and the IC50 ([8]; Severe acute respiratory syndrome coronavirus 2, Calu-3) was 90 nM. The “EIF2 signaling pathway z score” value [9] was −1.763, the “fraction of expressed genes significantly altered” value [2] was 59.8% and the “number of genes whose expression was significantly altered” value [2] was 7,433. For the same molecule, the “yield of infectious virus in the tears (HSV-1 shedding) compared to vehicle” value ([15]; 2 uL of 50 μM solution in DMSO to the eyes daily for 4 days, n=10) was “dramatically reduced the yield of infectious virus; also recorded: dramatically reduces HSV-1 shedding”, the “reduction of peak titer of infectious virus versus vehicle” value ([15]; 2 uL of 50 μM solution topically daily) was about 3 fold and the “delay of peak titer of infectious virus versus vehicle” value ([15]; 2 uL of 50 μM solution topically daily, vehicle peak at day 2 post-infection) was “one”. The “organoid viability (calcein AM)” value [16] was “No significant reduction in organoid viability”, the CC [13] was 1.92 µM and the “anti-HSV-1 activity (expression of EGFP and RFP reporter genes)” value [3] was “no expression of EGFP and RFP reporter genes; also recorded: comparable to 2b and ACV”.
